According to patent publication US20100215618A1, “NOVEL COMPOUNDS - 644” (Arrow Therapeutics Limited, priority 2009, published 2010):

Tested on: HCV replicon cells Huh 9B
Assay type: cell-based
Settings: Huh 9B replicon cells, 72 h, methylene blue, total cell area reduced by 50%

Compound | HCV TD50 Replicon [µM]
CC(C)(C)OC(=O)N[C@@H](C(=O)N1CCC[C@H]1c1ncc(-c2ccc(-c3ccc(C(=O)Nc4ccc(CN5CCS(=O)(=O)CC5)cc4)cc3)cc2)[nH]1)c1ccccc1 [Example 2, Tert-butyl N-[(1R)-2-[(2S)-2-[5-[4-[4-[[4-[(1,1-dioxo-1,4-thiazinan-4-yl)methyl]phenyl]carbamoyl]phenyl]phenyl]-1H-imidazol-2-yl]pyrrolidin-1-yl]-2-oxo-1-phenyl-ethyl]carbamate] | >25
CCN(CC)[C@@H](C(=O)N1CCC[C@H]1c1ncc(-c2ccc(-c3ccc(C(=O)Nc4ccc(CN5CCS(=O)(=O)CC5)cc4)cc3)cc2)[nH]1)c1ccccc1 [Example 8, 4-[4-[2-[(2S)-1-[(2R)-2-(diethylamino)-2-phenyl-acetyl]pyrrolidin-2-yl]-1H-imidazol-5-yl]phenyl]-N-[4-[(1,1-dioxo-1,4-thiazinan-4-yl)methyl]phenyl]benzamide] | >25
COC(=O)N[C@H](C(=O)N1CCC[C@H]1c1ncc(-c2ccc(-c3ccc(C(=O)Nc4ccc(CN5CCS(=O)(=O)CC5)cc4)cc3)cc2)[nH]1)c1ccccc1 [Example 6, Methyl N-[(1S)-2-[(2S)-2-[5-[4-[4-[[4-[(1,1-dioxo-1,4-thiazinan-4-yl)methyl]phenyl]carbamoyl]phenyl]phenyl]-1H-imidazol-2-yl]pyrrolidin-1-yl]-2-oxo-1-phenyl-ethyl]carbamate] | >25
CC[C@H](C)[C@H](NC(=O)OC)C(=O)N1CCC[C@H]1c1ncc(-c2ccc(-c3ccc(C(=O)Nc4ccc(CN5CCS(=O)(=O)CC5)cc4)cc3)cc2)[nH]1 [Example 16, Methyl N-[(1S,2S)-1-[(2S)-2-[5-[4-[4-[[4-[(1,1-dioxo-1,4-thiazinan-4-yl)methyl]phenyl]carbamoyl]phenyl]phenyl]-1H-imidazol-2-yl]pyrrolidine-1-carbonyl]-2-methyl-butyl]carbamate] | >25
CN(C)[C@@H](C(=O)N1CCC[C@H]1c1ncc(-c2ccc(-c3ccc(C(=O)Nc4ccc(CN5CCS(=O)(=O)CC5)cc4)cc3)cc2)[nH]1)c1ccccc1 [Example 9, 4-[4-[2-[(2S)-1-[(2R)-2-(dimethylamino)-2-phenyl-acetyl]pyrrolidin-2-yl]-1H-imidazol-5-yl]phenyl]-N-[4-[(1,1-dioxo-1,4-thiazinan-4-yl)methyl]phenyl]benzamide] | >25
COC(=O)N[C@H](C(=O)N1CCC[C@H]1c1ncc(-c2ccc(-c3ccc(C(=O)Nc4ccc(CN5CCS(=O)(=O)CC5)cc4)cc3)cc2)[nH]1)C(C)C [Example 3, Methyl N-[(1S)-1-[(2S)-2-[5-[4-[4-[[4-[(1,1-dioxo-1,4-thiazinan-4-yl)methyl]phenyl]carbamoyl]phenyl]phenyl]-1H-imidazol-2-yl]pyrrolidine-1-carbonyl]-2-methyl-propyl]carbamate] | >25
COC(=O)N[C@H](C(=O)N1CCC[C@H]1c1ncc(-c2ccc(-c3ccc(C(=O)Nc4ccc(CN5CCS(=O)(=O)CC5)cc4)cc3)cc2)[nH]1)C(C)(C)C [Example 5, Methyl N-[(1S)-1-[(2S)-2-[5-[4-[4-[[4-[(1,1-dioxo-1,4-thiazinan-4-yl)methyl]phenyl]carbamoyl]phenyl]phenyl]-1H-imidazol-2-yl]pyrrolidine-1-carbonyl]-2,2-dimethyl-propyl]carbamate] | 3.9
COC(=O)N[C@@H](CC(C)C)C(=O)N1CCC[C@H]1c1ncc(-c2ccc(-c3ccc(C(=O)Nc4ccc(CN5CCS(=O)(=O)CC5)cc4)cc3)cc2)[nH]1 [Example 14, Methyl N-[(1S)-1-[(2S)-2-[5-[4-[4-[[4-[(1,1-dioxo-1,4-thiazinan-4-yl)methyl]phenyl]carbamoyl]phenyl]phenyl]-1H-imidazol-2-yl]pyrrolidine-1-carbonyl]-3-methyl-butyl]carbamate] | >25
COC(=O)N[C@@H](C(=O)N1CCC[C@H]1c1ncc(-c2ccc(-c3ccc(C(=O)Nc4ccc(CN5CCS(=O)(=O)CC5)cc4)cc3)cc2)[nH]1)c1ccccc1 [Example 7, Methyl N-[(1R)-2-[(2S)-2-[5-[4-[4-[[4-[(1,1-dioxo-1,4-thiazinan-4-yl)methyl]phenyl]carbamoyl]phenyl]phenyl]-1H-imidazol-2-yl]pyrrolidin-1-yl]-2-oxo-1-phenyl-ethyl]carbamate] | >25
COC(=O)N[C@H](C(=O)N1CCC[C@H]1c1ncc(-c2ccc(-c3ccc(C(=O)Nc4ccc(CN5CCS(=O)(=O)CC5)cc4)cc3)c(C)c2)[nH]1)C(C)C [Example 54, Methyl N-[(1S)-1-[(2S)-2-[5-[4-[4-[[4-[(1,1-dioxo-1,4-thiazinan-4-yl)methyl]phenyl]carbamoyl]phenyl]-3-methyl-phenyl]-1H-imidazol-2-yl]pyrrolidine-1-carbonyl]-2-methyl-propyl]carbamate] | >25
COC(=O)N[C@H](C(=O)N1CCOC[C@H]1c1ncc(-c2ccc(-c3ccc(C(=O)Nc4ccc(CN5CCS(=O)(=O)CC5)cc4)cc3)cc2)[nH]1)c1ccccc1 [Example 47, Methyl N-[(1S)-2-[(3R)-3-[5-[4-[4-[[4-[(1,1-dioxo-1,4-thiazinan-4-yl)methyl]phenyl]carbamoyl]phenyl]phenyl]-1H-imidazol-2-yl]morpholin-4-yl]-2-oxo-1-phenyl-ethyl]carbamate] | >25
